A short description of data set [1]: Inhibition of Staphylococcus aureus USA300 LAC quorum sensing system Agr assessed as reduction in AIP production measured after 5 hrs by UPLC-MS analysis. Further details: species or system Staphylococcus aureus subsp. aureus USA300.
The subject of data set [2] is Staphylococcus aureus subsp. aureus USA300. Nature of the data set: Inhibition of Staphylococcus aureus USA300 LAC quorum sensing system Agr assessed as reduction in hla transcription at 2.9 to 16 uM after 5 hrs by RNA protect cell reagent based qRT-PCR analysis. A general note: In qPCR the cycle at which signal appears reflects the starting amount.
For data set [3], the target named is T1, Accessory gene regulator protein A (Staphylococcus aureus) (UniProt P0A0I7).
T1 sequence (whole entry): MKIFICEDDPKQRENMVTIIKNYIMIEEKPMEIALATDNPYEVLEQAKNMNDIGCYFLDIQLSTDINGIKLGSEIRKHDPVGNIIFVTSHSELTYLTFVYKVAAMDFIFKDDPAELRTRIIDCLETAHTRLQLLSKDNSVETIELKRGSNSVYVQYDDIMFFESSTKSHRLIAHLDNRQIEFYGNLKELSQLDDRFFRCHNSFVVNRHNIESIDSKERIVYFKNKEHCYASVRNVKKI
Nature of the data set: Inhibition of Staphylococcus aureus USA300 LAC quorum sensing system AgrA assessed as reduction in psma transcription at 2.9 to 16 uM after 5 hrs by RNA protect cell reagent based qRT-PCR analysis. The settings on record: Staphylococcus aureus subsp. aureus USA300.

Data set [4] has as its system Staphylococcus aureus. The data set can be described thus: Effect on growth of Staphylococcus aureus USA300 LAC measured at 1 hr interval for 5 hrs.
Data set [5] addresses T1, Accessory gene regulator protein A (Staphylococcus aureus). Nature of the data set: Inhibition of Staphylococcus aureus USA300 LAC quorum sensing system AgrA assessed as reduction in RNA3 transcription at 9 to 16 uM after 5 hrs by RNA protect cell reagent based qRT-PCR analysis. The settings on record: Staphylococcus aureus subsp. aureus USA300.

SMILES strings stand for the structures. Active and inactive are the calls of the source. The rule behind the calls is not given here.

The term IC50 denotes the concentration needed to halve the response being measured. As to `CC(C)=CCc1c(O)cc(C)cc1Oc1cc(C)c(C(=O)O)c(O)c1`, the IC50 in data set [1] was 4.6 µM. The same measure, in the same setting: to `O=C1c2cc(O)cc(O)c2C(=O)c2c(O)cc(CO)cc21` belongs 6.3 to 12.5 µM; to `CCCCC/C=C/C1=C(CO)[C@@H](O)[C@H]2O[C@@]2(C/C=C(\C)C(=O)O)C1=O`, 1.3 µM.

For the compound `CC(C)=C[C@H]1c2c(O)cc(C)cc2Oc2cc(C)c(C(=O)O)c(O)c21`, the inhibition result in data set [2], in data set [3] and in data set [5] was “Active” throughout. In data set [4], the Activity result is “Non-Toxic”. The half-inhibitory concentration (IC50) in data set [1] is 0.3 µM. On to `CC(C)=CC1c2c(O)cc(C)cc2Oc2cc(C)cc(O)c21`, for which the IC50 in data set [1] fell in the range of 6.3 to 12.5 µM.

Source of the values: ChEMBL document CHEMBL4422677, “Prenylated Diresorcinols Inhibit Bacterial Quorum Sensing” (J Nat Prod, 2019).
